Data: patent US20040198789A1, “Lercanidipine/ARB/diuretic therapeutic combinations” (Recordati Ireland Limited, priority 2003, published 2004)
Values joined by “and” are separate entries in the source; they are usually repeats but may differ in a detail not shown here. Equal entries are not always repeated.

Columns and labels:
[1] = tested on: reperfusion-induced hypertension in uninephrectomized anesthetized rats; test: Model of acute angiotensin-mediated renal hypertension in anesthetized rats (SBP, DBP, HR); format: in vivo, rat
Method: Male Sprague-Dawley rats, weighing 250-300 g, were anaesthetized with pentobarbital sodium (35 mg/kg, i.p.) and placed on a thermic blanket. The temperature was maintained at 37° C. with a thermoregulator via a rectal probe. The animals were tracheotomized to facilitate spontaneous breathing. A polyethylene catheter was placed in the left jugular vein to allow for infusion of pentobarbital sodium to maintain anesthesia. The left femoral vein and artery were cannulated with polyethylene catheters to allow drugs administration and to monitor blood pressure, respectively.
Animals then underwent a left nephrectomy by excising the left kidney via a flank incision. The right kidney and renal vein, artery and ureter were then exposed via a right retroperitoneal incision, under a dissecting microscope. Silk threads were placed around both vessels and ureter. The cavity was then covered with Vaseline oil.
After 30-60 minutes of basal recordings of arterial blood pressure and heart rate the threads around the renal vessels and ureter were tied close to the renal hilum to induce complete renal ischemia of the right kidney. After 2 hours of ischemia, the threads were removed to allow renal reperfusion and urine output.
For irbesartan experiments and comparisons, control (vehicle) or drug (irbesartan (100 μg/kg), lercanidipine (7.5 μg/kg), or both lercanidipine (7.5 μg/kg) and irbesartan (100 μg/kg)) were administered intravenously at 5 min after reperfusion was begun.
Results were expressed as mean values ±S.E. (in the tables) and in percent change observed.
To evaluate the effects of drugs administration on blood pressure and heart rate within each group, two-way ANOVA and Dunnet's test were used (“within treatment”). To evaluate the statistical differences among the treatment groups, data are analyzed using a three-way ANOVA (analysis of variance) with repeated measures on factor time and pre-planned multiple comparisons. The analysis was performed using, for each treatment, delta values (log transformation). […] (“between treatments”).

[2] = tested on: reperfusion-induced hypertension in uninephrectomized anesthetized rats; test: as above; format: in vivo, rat; remark: listed apart in the source
[3] = following oral administration; cited from earlier work
[4] = tested on: isolated rat aorta; conditions: in vitro; even after repeated wash-out during 6 hours; cited from earlier work
[5] = cited from earlier work
[6] = between treatments, three-way ANOVA on delta values, lercanidipine 7.5 μg/kg, irbesartan 100 μg/kg i.v.
[7] = between treatments, three-way ANOVA on delta values, lercanidipine 7.5 μg/kg, olmesartan free acid 10 μg/kg i.v.
[8] = between treatments, three-way ANOVA on delta values, lercanidipine 10 μg/kg, valsartan 30 μg/kg i.v.
[9] = lercanidipine 7.5 μg/kg i.v., n=6, time 0 min, basal, pre-drug
[10] = lercanidipine 7.5 μg/kg i.v., n=6, time 120 min, end of ischemia, pre-drug
[11] = lercanidipine 7.5 μg/kg i.v., n=6, time 130 min, 5 min after drug
[12] = lercanidipine 7.5 μg/kg i.v., n=6, time 135 min, 10 min after drug
[13] = lercanidipine 7.5 μg/kg i.v., n=6, time 150 min, 25 min after drug
[14] = lercanidipine 7.5 μg/kg i.v., n=6, time 165 min, 40 min after drug
[15] = lercanidipine 7.5 μg/kg i.v., n=6, time 180 min, 55 min after drug
[16] = lercanidipine 7.5 μg/kg i.v., n=6, time […], 5 min reperfusion, pre-drug
[17] = lercanidipine 10 μg/kg i.v., n=5, time 0 min, basal, pre-drug
[18] = lercanidipine 10 μg/kg i.v., n=5, time 120 min, end of ischemia, pre-drug
[19] = lercanidipine 10 μg/kg i.v., n=5, time 130 min, 5 min after drug
[20] = lercanidipine 10 μg/kg i.v., n=5, time 135 min, 10 min after drug
[21] = lercanidipine 10 μg/kg i.v., n=5, time 150 min, 25 min after drug
[22] = lercanidipine 10 μg/kg i.v., n=5, time 165 min, 40 min after drug
[23] = lercanidipine 10 μg/kg i.v., n=5, time 180 min, 55 min after drug
[24] = lercanidipine 10 μg/kg i.v., n=5, time […], 5 min reperfusion, pre-drug
[25] = within treatment vs […], lercanidipine 10 μg/kg or valsartan 30 μg/kg i.v.

For `COC(=O)C1=C(C)NC(C)=C(C(=O)OC(C)(C)CN(C)CCC(c2ccccc2)c2ccccc2)C1c1cccc([N+](=O)[O-])c1` (stereo not drawn) [lercanidipine, methyl 1,1,N-trimethyl-N-(3,3-diphenylpropyl)-2-aminoethyl 1,4-dihydro-2,6-dimethyl-4-(3-nitrophenyl)pyridine-3,5-dicarboxylate], the “Diastolic blood pressure: general differences among groups: p vs Irbesartan” value [1, 6] was “ns”, the “Diastolic blood pressure: general differences among groups: p vs Vehicle” value [1, 6] was “p < 0.05” and the “Heart rate differences among groups: p vs Irbesartan” value [1, 6] was “p < 0.001”. For the same molecule, the “Heart rate differences among groups: p vs Vehicle” value [1, 6] was “p < 0.01”, the “Systolic blood pressure differences among groups: p vs Irbesartan” value [1, 6] was “ns” and the “Systolic blood pressure differences among groups: p vs Vehicle” value [1, 6] was “ns”. For the same molecule, the “Diastolic blood pressure differences among treatment groups: p vs Olmesartan” value [1, 7] was “ns”, the “Diastolic blood pressure differences among treatment groups: p vs Vehicle” value [1, 7] was “p < 0.05” and the “Heart rate differences among treatment groups: p vs Olmesartan” value [1, 7] was “p < 0.001”. The “Heart rate differences among treatment groups: p vs Vehicle” value [1, 7] was “p < 0.01”, the “Systolic blood pressure differences among treatment groups: p vs Olmesartan” value [1, 7] was “ns” and the “Systolic blood pressure differences among treatment groups: p vs Vehicle” value [1, 7] was “ns”. The “Diastolic blood pressure: general differences among groups: p vs Valsartan” value [1, 8] was “ns”, the “Heart rate: general differences among groups: p vs Valsartan” value [1, 8] was “p < 0.01” and the “Systolic blood pressure: general differences among groups: p vs Valsartan” value [1, 8] was “ns”. It also gave a DBP [1, 9] of 75.7 ± 1.7 mmHg, an HR [1, 9] of 383.3 ± 12.0 beats/min and an SBP [1, 9] of 120.7 ± 3.5 mmHg. For the same molecule, the DBP [1, 10] was 63.3 ± 2.9 mmHg, the HR [1, 10] was 381.7 ± 7.5 beats/min and the SBP [1, 10] was 105.2 ± 5.3 mmHg. The HR [1, 11] was 434.2 ± 15.3 b beats/min, the SBP [1, 11] was 136.7 ± 7.4 mmHg and the HR [1, 12] was 426.7 ± 14.3 b beats/min. For the same molecule, the SBP [1, 12] was 140.7 ± 7.1 mmHg and 140.7 ± 7.1b mmHg, the HR [1, 13] was 411.7 ± 12.8 b beats/min and the SBP [1, 13] was 143.2 ± 7.2 mmHg. It also gave an HR [1, 14] of 411.7 ± 15.6 b beats/min, an SBP [1, 14] of 144.5 ± 9.1 mmHg and an HR [1, 15] of 410.0 ± 18.3 b beats/min. The SBP [1, 15] was 136.8 ± 8.4 mmHg and 136.8 ± 8.4b mmHg, the DBP [1, 16] was 117.2 ± 4.4 mmHg and the HR [1, 16] was 346.7 ± 8.4 beats/min. The SBP [1, 16] was 160.7 ± 8.5 mmHg, the “effect on heart rate (in words)” value ([1]; lercanidipine 7.5 μg/kg, irbesartan 100 μg/kg i.v., alone or together) was “increase in heart rate” and the “effect on blood pressure (in words)” value ([1]; lercanidipine 7.5 μg/kg, irbesartan 100 μg/kg i.v., alone or together, 5 min after reperfusion) was “statistically significant decrease in both systolic and diastolic blood pressure”. For the same molecule, the “effect on heart rate (in words)” value ([1]; lercanidipine 7.5 μg/kg, olmesartan free acid 10 μg/kg i.v., alone or together) was “increase in heart rate”, the DBP [1, 17] was 69.8 ± 4.1 mmHg and the HR [1, 17] was 350.0 ± 3.2 beats/min. It also gave an SBP [1, 17] of 133.8 ± 6.1 mmHg, a DBP [1, 18] of 64.6 ± 4.5 mmHg and an HR [1, 18] of 350.0 ± 3.5 beats/min. The SBP [1, 18] was 134.8 ± 6.2 mmHg, the DBP [1, 19] was 77.4 ± 4.1 b mmHg and the HR [1, 19] was 434.0 ± 27.9 b beats/min. The SBP [1, 19] was 149.2 ± 5.4 mmHg, the DBP [1, 20] was 77.8 ± 3.2 b mmHg and the HR [1, 20] was 438.0 ± 22.2 b beats/min. It also gave an SBP [1, 20] of 145.4 ± 5.0 b mmHg, a DBP [1, 21] of 76.4 ± 7.2 b mmHg and an HR [1, 21] of 425.0 ± 14.7 b beats/min. For the same molecule, the SBP [1, 21] was 143.8 ± 5.5 b mmHg, the DBP [1, 22] was 78.4 ± 8.4 b mmHg and the HR [1, 22] was 423.0 ± 15.1 b beats/min. For the same molecule, the SBP [1, 22] was 138.2 ± 8.6 b mmHg, the DBP [1, 23] was 76.2 ± 7.3 b mmHg and the HR [1, 23] was 421.0 ± 14.7 b beats/min. The SBP [1, 23] was 138.8 ± 4.9 b mmHg, the DBP [1, 24] was 105.6 ± 5.0 mmHg and the HR [1, 24] was 345.0 ± 5.5 beats/min. The SBP [1, 24] was 167.6 ± 4.0 mmHg, the “time of statistically significant decrease in diastolic blood pressure after administration” value ([1]; within treatment vs […], lercanidipine 7.5 μg/kg or olmesartan free acid 10 μg/kg i.v.) was 5 to 55 min and the “time of statistically significant decrease in systolic blood pressure after administration” value [1, 25] was 10 to 55 min. For the same molecule, the “Diastolic blood pressure: general differences among groups: p vs Vehicle” value [2, 8] was “p < 0.01”, the “Heart rate: general differences among groups: p vs Vehicle” value [2, 8] was “p < 0.05” and the “Systolic blood pressure: general differences among groups: p vs Vehicle” value [2, 8] was “ns”. For the same molecule, the “effect on heart rate (in words)” value ([2]; lercanidipine 10 μg/kg, valsartan 30 μg/kg i.v., alone or together) was “positive chronotropic effect”, the “time of statistically significant decrease in diastolic blood pressure after administration” value [2, 25] was 5 to 55 min and the “time of peak serum/plasma concentration” value [3] was 2 to 3 h. The “isolated rat aorta response to high K+” value [4] was “attenuated”, the “tachycardia reported as a side effect, patients” value ([5]; hypertensive patients on lercanidipine) was 0-9% and the “heart palpitations, patients reporting” value ([5]; patients administered lercanidipine) was 0-9%.
